Several values for one entry are separate records, joined by “and”; a condition that tells them apart may be missing. Equal entries are not always repeated. Entries after “also recorded” stand apart in the source; their conditions may differ. Where two headings read alike, the source gives them in different places.
How the values were obtained:
NE [1] = target: T1, NE (Homo sapiens, UniProt P08246); details: whole-blood assay; cited from earlier work
human NE [2] = target: T2, human NE (Homo sapiens, UniProt P08246); details: cited from earlier work
T2 sequence (P08246 30-267): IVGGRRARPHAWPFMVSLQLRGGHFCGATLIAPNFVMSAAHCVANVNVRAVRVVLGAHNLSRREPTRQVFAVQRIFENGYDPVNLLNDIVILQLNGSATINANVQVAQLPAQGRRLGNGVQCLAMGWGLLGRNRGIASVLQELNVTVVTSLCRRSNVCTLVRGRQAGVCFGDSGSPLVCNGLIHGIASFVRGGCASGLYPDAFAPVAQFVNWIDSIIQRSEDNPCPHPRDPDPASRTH

human NE [3] = target: T2, human NE; details: read-out: binding affinity KD; cited from earlier work
NE [4] = target: T1, NE; details: cell-associated assay; cited from earlier work
murine NE = target: T3, murine NE (Mus musculus, UniProt Q3UP87); details: cited from earlier work
T3 sequence (Q3UP87 27-265): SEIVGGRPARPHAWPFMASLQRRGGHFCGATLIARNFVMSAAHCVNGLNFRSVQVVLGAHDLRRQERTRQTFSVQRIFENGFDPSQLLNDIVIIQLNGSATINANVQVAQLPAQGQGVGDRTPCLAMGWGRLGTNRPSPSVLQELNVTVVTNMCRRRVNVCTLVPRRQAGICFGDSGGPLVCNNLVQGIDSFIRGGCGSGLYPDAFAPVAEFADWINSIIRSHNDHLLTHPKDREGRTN

[5] = system: patients with BOS and chronic GVHD after HCT
murine model of GVHD = type: in vivo

Cc1c(-c2ccnn2C)cc(C(=O)NCc2ccc(S(C)(=O)=O)cn2)c(=O)n1-c1cccc(C(F)(F)F)c1 [alvelestat, N-{[5-(methanesulfonyl)pyridin-2-yl]methyl}-6-methyl-5-(1-methyl-1H-pyrazol-5-yl)-2-oxo-1-[3-(trifluoromethyl)phenyl]-1,2-dihydropyridine-3-carboxamide]
IC50 (NE [1]): 44 nM
pIC50 (NE [1]): 7.36
Ki (human NE [2]): 9.4 nM
pIC50 (human NE [2]): 7.9
reversibility of inhibition (human NE [2]): rapidly reversible
Kd (human NE [3]): 9.5 nM
IC50 (NE [4]): 48 nM
pIC50 (NE [4]): 7.32
crossover potency for NE from other species (murine NE; NE from other species, including mice): good crossover potency
pIC50 (murine NE; murine NE): 6.5
LSS score for lung/breathing at C5 ([5]; Lee cGVHD Symptom Scale, C5 = continuation dosing period up to 6 months, individual patients #1-7): 7 and 3 (2×) and 11 and 2 and 5 and 4
LSS score for lung/breathing at the end of treatment ([5]; Lee cGVHD Symptom Scale, individual patients #1-7): 8 and 2 and 11 and 3 and 7 and 5 and 1
patients with progressive disease ([5]; NIH chronic GVHD consensus criteria, decline in FEV1 after pneumonia, of 7 patients): 1 patient
grade 2 adverse event possibly related: ALT or AST elevation ([5]; human, in vivo): 3 patients
grade 2 adverse event possibly related: increased creatinine ([5]; human, in vivo): 3 patients
grade 2 adverse event possibly related: upper respiratory infection ([5]; human, in vivo): 3 patients
grade 3 adverse event possibly related: gastroenteritis and vomiting requiring hospitalization ([5]; human, in vivo): 1 patient
grade 3 adverse event possibly related: pneumonia ([5]; human, in vivo): 1 patient
patients requiring dose interruptions ([5]; human, in vivo): Four
patients requiring dose reduction ([5]; human, in vivo): 1
patients who discontinued treatment prior to end of study ([5]; human, in vivo): Four
maximum dose to which all 7 patients tolerated dose escalation ([5]; human, in vivo, po, 8 weeks): 240 mg twice daily
End of treatment FEV1 % predicted ([5]; individual patients (patient #1-7)): 47% and 55% and 40% and 46% and 38% and 41% and 73%
patients with improvement in Lee chronic GVHD symptom scale lung score ([5]; of 7 patients, 2 during the 6 month treatment period, 2 at end of treatment): 4 patients
maximum tolerated dose (MTD) ([5]; oral, intra-patient escalation 60 to 240 mg twice daily, 7 patients): not reached
improvement in FEV1 ([5]; seen in 2 of 7 patients): 9%
histological scoring of GI GVHD (murine model of GVHD; 20 mg/kg diet vs T2e6, sacrificed Day 4, blinded pathologist, n=5/group, p=0.08, FIG. 4): trend toward increased pathology in the T2e6 group; also recorded: markedly less GVHD
survival (murine model of GVHD; T-cell dose experiment, 20 mg/kg in pre-mixed diet pellets, vs 2x10^6 T cells alone, p<0.001, n=5/group, FIG. 2A, 20 mg/kg): significantly improved survival; also recorded: better survival
toxicity in skin or liver (histology) (murine model of GVHD; mice receiving T2e6+20 mg/kg diet, Day 4): no toxicity was observed
survival (murine model of GVHD; powder mixed with wet food, days -1 to 45, TCDBM+T2e6+20 mg/kg wet food vs TCDBM+T2e6, log-rank p=0.01, FIG. 1B): significant improvements in survival
survival (murine model of GVHD; pre-mixed diet pellets, days -1 to 45, TCDBM+T2e6+20 mg/kg diet vs TCDBM+T2e6, log-rank p=0.001, FIG. 1A): significant improvements in survival
dose-response in improvement in survival, body weight or GVHD score (murine model of GVHD; three doses tested: 20, 50, 200 mg/kg per day, FIG. 1C-1F): does not appear to be a dose-response
